Activity calls are given as the source filed them.
Columns and labels:
[1] = molecular target: T1, Replicative DNA helicase DnaB (Mycobacterium tuberculosis, UniProt P9WMR3); assay: DnaB intein splicing inhibitors, dose response, biochemical, cell-free fluorescence (AID 449749); format: functional
T1 sequence (P9WMR3 whole entry): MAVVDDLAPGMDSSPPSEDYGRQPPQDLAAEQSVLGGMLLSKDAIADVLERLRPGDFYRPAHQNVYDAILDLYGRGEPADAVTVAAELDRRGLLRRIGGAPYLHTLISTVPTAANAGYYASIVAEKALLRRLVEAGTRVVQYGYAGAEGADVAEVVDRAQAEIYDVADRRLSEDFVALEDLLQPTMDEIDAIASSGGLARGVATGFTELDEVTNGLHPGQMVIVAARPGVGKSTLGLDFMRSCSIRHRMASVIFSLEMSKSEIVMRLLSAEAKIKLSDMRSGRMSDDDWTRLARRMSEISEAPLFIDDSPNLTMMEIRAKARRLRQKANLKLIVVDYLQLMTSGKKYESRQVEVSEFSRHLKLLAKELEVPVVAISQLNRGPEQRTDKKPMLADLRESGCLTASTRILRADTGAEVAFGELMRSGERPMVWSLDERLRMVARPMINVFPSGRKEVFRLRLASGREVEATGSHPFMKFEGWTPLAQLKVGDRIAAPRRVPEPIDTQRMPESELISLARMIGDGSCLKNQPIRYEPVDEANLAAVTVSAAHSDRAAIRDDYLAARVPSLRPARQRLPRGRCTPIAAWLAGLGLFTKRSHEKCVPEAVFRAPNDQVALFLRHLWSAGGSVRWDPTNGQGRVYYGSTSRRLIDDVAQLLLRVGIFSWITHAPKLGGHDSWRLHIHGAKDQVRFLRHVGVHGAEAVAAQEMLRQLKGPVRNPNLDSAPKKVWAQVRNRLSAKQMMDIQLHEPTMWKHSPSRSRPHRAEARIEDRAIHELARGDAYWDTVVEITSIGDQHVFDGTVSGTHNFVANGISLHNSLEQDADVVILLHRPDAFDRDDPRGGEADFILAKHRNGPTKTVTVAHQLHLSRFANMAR

[2] = molecular target: T2, Apoptotic protease-activating factor 1 (Homo sapiens, UniProt O14727); format: functional;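 for EC50 Mean: caspase-3 cleavage of fluorogenic Rh110 DEVD substrate downstream of apoptosome activation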
T2 sequence (O14727 whole entry): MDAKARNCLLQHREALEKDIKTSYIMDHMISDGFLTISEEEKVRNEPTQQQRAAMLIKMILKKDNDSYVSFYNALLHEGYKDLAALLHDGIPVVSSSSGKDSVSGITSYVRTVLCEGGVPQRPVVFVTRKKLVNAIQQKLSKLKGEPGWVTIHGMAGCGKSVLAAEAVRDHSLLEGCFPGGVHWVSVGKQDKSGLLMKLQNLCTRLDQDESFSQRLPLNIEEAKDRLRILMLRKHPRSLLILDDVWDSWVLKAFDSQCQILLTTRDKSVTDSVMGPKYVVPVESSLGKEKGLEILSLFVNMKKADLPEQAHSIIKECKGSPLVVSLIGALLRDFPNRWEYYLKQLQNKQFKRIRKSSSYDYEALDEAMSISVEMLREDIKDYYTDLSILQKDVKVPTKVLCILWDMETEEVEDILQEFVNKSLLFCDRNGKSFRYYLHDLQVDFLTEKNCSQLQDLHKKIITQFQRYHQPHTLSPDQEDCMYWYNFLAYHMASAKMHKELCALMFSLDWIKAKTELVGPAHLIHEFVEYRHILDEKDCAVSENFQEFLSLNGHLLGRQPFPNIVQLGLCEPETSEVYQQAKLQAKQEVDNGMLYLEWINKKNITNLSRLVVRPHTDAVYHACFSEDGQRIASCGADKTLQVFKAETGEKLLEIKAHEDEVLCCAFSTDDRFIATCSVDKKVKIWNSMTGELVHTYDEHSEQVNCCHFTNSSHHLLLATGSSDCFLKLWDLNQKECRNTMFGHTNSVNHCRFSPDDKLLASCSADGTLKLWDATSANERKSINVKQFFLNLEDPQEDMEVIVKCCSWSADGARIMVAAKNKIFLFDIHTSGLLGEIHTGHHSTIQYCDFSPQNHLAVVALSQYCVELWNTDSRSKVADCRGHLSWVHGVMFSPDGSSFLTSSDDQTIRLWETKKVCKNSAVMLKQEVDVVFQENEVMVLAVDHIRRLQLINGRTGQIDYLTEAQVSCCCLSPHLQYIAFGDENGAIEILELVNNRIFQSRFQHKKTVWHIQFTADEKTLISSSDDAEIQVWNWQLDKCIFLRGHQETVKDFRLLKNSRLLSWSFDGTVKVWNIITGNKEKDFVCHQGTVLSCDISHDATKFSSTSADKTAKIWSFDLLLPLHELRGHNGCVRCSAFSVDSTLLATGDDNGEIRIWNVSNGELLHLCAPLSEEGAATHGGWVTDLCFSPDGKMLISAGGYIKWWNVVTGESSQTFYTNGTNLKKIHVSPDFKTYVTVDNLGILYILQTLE

[3] = molecular target: T3, Protein RecA (Mycobacterium tuberculosis, UniProt P9WHJ3); assay: Fluorescence Cell-Free Homogeneous Dose Retest to Identify Inhibitors of RecA-Intein Splicing Activity. [Related pubchem assays (depositor defined):AID2097, AID2223, AID489010, AID492950]; format: functional
T3 sequence (P9WHJ3 whole entry): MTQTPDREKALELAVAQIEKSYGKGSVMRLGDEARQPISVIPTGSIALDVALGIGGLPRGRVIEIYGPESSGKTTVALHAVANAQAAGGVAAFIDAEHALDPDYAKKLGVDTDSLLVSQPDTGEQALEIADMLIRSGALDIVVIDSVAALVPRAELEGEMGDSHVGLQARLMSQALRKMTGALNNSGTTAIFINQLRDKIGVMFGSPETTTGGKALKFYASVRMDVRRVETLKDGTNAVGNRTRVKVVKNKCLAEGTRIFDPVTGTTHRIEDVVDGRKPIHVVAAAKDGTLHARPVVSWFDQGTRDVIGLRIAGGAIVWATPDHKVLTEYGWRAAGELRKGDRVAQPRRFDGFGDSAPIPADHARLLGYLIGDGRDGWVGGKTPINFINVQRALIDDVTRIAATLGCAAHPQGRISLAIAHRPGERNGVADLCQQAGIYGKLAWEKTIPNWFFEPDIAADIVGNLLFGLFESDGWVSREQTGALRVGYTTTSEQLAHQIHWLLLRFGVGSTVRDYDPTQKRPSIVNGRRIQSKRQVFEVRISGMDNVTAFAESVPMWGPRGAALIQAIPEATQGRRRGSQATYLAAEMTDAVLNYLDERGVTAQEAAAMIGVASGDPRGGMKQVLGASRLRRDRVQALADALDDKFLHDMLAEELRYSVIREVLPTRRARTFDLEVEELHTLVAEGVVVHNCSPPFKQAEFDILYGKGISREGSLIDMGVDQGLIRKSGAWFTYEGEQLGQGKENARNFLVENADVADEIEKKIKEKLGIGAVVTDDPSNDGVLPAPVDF

[4] = molecular target: Tyrosine-protein phosphatase non-receptor type 11 (Homo sapiens, UniProt Q06124); assay: SHP2 phosphatase inhibition, dose response, selectivity assay for STEP inhibitor project, biochemical (AID 602367); format: functional; conditions: read-out: IC50_Mean
Tyrosine-protein phosphatase non-receptor type 11, sequence (Q06124 whole entry): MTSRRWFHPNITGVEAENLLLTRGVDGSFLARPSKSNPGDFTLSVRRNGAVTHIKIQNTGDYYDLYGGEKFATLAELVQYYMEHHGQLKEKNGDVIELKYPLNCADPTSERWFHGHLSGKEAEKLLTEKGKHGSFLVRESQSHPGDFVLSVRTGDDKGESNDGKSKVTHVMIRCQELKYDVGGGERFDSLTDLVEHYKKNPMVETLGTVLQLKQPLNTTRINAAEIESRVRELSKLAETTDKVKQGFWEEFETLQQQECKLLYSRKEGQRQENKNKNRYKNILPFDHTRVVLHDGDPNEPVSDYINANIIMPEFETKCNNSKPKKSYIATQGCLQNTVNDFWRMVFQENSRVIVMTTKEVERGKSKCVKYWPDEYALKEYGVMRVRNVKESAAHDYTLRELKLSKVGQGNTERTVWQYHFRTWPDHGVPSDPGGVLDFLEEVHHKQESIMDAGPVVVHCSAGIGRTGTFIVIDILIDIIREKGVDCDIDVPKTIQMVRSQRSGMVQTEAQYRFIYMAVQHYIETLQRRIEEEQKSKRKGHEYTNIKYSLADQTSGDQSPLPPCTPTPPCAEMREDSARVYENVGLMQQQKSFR

[5] = molecular target: Tyrosine-protein phosphatase non-receptor type 5 (Homo sapiens, UniProt P54829); assay: STEP phosphatase inhibitors, confirmation, biochemical, fluorescence intensity, uHTS hits (AID 602372); format: functional; conditions: read-out: IC50_Mean
Tyrosine-protein phosphatase non-receptor type 5, sequence (P54829 whole entry): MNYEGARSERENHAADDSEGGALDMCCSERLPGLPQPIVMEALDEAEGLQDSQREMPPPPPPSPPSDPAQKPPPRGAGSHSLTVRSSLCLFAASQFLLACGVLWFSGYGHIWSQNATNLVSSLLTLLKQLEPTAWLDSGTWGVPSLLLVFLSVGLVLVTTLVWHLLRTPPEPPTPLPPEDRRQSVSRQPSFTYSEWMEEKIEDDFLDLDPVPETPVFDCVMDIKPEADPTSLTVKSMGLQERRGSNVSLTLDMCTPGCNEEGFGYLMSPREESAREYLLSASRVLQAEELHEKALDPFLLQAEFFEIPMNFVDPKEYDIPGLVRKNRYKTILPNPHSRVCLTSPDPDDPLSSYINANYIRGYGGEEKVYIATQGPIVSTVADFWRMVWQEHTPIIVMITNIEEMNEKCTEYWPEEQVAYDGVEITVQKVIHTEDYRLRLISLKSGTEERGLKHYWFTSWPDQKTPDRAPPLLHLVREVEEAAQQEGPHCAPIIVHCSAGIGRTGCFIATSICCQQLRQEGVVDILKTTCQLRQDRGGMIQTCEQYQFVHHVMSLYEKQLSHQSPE

[6] = molecular target: Dual specificity protein phosphatase 3 (Homo sapiens, UniProt P51452); assay: VHR phosphatase inhibition, dose response, selectivity assay for STEP inhibitor project, biochemical (AID 602374); format: functional; conditions: read-out: IC50_Mean
Dual specificity protein phosphatase 3, sequence (P51452 whole entry): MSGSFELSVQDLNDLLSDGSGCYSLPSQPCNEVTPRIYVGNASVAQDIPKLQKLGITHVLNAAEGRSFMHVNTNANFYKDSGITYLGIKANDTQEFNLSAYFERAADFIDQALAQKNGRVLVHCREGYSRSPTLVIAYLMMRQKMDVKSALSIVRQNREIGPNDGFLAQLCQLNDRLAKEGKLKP

[7] = molecular target: T4, Low molecular weight phosphotyrosine protein phosphatase (Homo sapiens, UniProt P24666); format: functional; conditions: read-out: IC50_Mean;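 note: Dose-response confirmation assay measuring inhibition of LMPTP enzyme activity by fluorescence intensity read-out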
T4 sequence (P24666 whole entry): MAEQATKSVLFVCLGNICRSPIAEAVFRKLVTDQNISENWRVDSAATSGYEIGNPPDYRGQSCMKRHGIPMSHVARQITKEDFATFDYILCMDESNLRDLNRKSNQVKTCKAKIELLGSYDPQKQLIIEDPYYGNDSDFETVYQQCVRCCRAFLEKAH

[8] = molecular target: Protein disulfide-isomerase (Homo sapiens, UniProt P07237); assay: PDI inhibitors, insulin aggregation turbidity, dose response, biochemical, absorbance, cherry-picked samples (AID 602350); format: functional
Protein disulfide-isomerase, sequence (P07237 whole entry): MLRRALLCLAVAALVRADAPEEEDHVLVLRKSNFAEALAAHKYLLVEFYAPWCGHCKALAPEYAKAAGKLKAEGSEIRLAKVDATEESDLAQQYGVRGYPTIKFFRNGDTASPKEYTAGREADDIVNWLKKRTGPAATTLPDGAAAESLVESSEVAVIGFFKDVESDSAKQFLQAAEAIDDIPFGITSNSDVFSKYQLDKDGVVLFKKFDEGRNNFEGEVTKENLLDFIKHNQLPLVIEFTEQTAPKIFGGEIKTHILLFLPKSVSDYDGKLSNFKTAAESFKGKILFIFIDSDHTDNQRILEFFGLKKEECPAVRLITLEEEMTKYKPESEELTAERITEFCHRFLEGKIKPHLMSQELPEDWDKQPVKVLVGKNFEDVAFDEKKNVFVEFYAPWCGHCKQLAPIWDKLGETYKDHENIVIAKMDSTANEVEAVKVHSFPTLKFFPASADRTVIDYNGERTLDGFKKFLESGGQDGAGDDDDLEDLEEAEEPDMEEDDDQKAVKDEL

[9] = molecular target: T2, Apoptotic protease-activating factor 1; assay: SAR analysis of small molecule Activators of Apaf-1 in a Fluorescent assay.; format: functional; conditions: read-out: EC50_Mean
[10] = molecular target: Ras and Rab interactor 1/Tyrosine-protein kinase ABL1 (Homo sapiens, UniProt P00519+Q13671); format: functional;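 note: biochemical TR-FRET dose-response test measuring inhibition of binding between Rin1 and Abl proteins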
Ras and Rab interactor 1/Tyrosine-protein kinase ABL1, sequence (P00519 whole entry): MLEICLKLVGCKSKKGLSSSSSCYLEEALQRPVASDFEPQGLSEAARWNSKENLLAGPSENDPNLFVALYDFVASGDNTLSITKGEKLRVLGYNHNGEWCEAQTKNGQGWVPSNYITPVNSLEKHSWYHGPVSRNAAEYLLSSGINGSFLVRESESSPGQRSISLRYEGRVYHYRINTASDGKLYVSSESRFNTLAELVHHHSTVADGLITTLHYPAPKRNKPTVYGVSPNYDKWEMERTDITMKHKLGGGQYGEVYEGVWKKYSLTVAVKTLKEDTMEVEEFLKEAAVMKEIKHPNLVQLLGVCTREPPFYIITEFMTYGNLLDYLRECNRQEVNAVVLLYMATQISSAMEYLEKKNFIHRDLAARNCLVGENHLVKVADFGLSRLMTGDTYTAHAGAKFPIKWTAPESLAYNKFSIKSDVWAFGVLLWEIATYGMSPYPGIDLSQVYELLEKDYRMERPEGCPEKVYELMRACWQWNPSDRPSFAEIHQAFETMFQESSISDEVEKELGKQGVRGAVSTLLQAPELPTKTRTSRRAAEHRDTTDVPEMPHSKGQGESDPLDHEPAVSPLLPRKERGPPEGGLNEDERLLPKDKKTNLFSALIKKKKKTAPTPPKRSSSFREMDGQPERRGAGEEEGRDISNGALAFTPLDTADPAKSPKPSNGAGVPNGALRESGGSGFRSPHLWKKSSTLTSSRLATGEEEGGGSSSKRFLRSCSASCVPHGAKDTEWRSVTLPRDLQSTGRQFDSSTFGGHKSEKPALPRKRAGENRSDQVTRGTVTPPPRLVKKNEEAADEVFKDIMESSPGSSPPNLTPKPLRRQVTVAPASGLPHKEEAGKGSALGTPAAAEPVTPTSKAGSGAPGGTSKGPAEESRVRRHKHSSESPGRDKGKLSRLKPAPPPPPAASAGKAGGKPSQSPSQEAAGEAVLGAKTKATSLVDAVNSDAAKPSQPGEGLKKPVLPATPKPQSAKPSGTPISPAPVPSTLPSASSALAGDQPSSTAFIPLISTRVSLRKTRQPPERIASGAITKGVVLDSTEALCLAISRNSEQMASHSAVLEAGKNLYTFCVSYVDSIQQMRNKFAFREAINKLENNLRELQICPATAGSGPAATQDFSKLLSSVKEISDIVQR
Ras and Rab interactor 1/Tyrosine-protein kinase ABL1, sequence (Q13671 whole entry): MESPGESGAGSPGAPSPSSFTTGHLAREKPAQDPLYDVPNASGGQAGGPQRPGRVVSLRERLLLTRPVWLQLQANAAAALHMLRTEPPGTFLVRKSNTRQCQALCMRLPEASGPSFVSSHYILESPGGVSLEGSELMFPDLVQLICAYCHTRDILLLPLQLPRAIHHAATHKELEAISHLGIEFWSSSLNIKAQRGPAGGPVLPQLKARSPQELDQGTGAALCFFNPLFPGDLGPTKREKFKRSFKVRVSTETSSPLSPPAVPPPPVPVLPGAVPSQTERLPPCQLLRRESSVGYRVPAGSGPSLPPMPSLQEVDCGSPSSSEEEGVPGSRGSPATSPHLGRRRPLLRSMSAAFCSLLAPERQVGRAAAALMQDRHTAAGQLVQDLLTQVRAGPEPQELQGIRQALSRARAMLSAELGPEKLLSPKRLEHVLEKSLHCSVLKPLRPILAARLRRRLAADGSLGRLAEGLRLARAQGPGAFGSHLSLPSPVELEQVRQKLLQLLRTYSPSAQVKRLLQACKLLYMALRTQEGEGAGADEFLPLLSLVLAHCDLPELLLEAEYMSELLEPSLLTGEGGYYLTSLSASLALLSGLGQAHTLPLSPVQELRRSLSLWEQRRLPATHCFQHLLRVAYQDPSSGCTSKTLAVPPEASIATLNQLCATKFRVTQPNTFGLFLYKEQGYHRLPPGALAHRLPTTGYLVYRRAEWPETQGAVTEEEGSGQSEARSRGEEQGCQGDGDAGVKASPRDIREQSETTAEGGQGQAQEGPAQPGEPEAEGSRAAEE

[11] = molecular target: Cytochrome P450 3A4 (Homo sapiens, UniProt P08684); conditions: Potency;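 note: confirmatory qHTS run detecting inhibitors and substrates of CYP3A4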
Cytochrome P450 3A4, sequence (P08684 whole entry): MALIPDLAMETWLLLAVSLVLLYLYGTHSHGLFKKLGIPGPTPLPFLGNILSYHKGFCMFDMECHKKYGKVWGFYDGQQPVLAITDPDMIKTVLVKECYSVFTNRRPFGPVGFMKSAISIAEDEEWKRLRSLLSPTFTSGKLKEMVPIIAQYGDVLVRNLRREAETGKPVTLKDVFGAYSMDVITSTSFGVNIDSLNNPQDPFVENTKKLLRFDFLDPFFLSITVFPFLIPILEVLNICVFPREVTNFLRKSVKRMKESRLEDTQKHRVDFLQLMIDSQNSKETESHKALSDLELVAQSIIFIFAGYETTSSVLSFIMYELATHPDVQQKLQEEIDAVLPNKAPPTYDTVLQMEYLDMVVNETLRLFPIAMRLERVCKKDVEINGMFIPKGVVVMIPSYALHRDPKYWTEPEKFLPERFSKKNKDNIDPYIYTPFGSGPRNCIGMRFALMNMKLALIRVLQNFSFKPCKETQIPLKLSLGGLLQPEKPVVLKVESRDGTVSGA

[12] = molecular target: T5, Aryl hydrocarbon receptor (Homo sapiens, UniProt P35869); conditions: Potency;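 note: confirmatory quantitative high-throughput screen measuring activation of the AhR signaling pathway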
T5 sequence (P35869 whole entry): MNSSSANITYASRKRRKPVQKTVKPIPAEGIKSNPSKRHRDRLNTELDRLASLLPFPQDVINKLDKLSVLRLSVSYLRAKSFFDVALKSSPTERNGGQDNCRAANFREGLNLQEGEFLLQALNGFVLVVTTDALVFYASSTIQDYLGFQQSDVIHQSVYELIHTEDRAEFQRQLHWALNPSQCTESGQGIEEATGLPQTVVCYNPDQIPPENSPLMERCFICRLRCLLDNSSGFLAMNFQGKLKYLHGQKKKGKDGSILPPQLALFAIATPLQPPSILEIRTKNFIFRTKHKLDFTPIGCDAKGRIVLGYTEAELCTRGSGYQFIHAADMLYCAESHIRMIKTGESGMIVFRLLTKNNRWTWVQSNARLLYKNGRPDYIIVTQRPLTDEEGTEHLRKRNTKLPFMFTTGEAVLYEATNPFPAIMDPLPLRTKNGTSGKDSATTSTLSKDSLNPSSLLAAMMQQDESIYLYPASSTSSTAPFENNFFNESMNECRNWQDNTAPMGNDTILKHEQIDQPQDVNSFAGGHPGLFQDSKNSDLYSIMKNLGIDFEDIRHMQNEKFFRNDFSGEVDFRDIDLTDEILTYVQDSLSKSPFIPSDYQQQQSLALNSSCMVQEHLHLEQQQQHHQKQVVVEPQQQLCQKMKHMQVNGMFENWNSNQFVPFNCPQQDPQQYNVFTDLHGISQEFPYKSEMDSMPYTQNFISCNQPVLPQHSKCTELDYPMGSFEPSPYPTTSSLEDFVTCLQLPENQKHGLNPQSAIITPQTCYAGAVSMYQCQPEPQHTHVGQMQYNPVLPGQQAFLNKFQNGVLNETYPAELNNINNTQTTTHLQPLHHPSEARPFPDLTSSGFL

[13] = molecular target: T6, Oxysterols receptor LXR-beta (Homo sapiens, UniProt P55055); format: functional, cell-based;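 note: Cell-based luminescence dose-response assay of agonist activity at LXR, run as a confirmatory counterscreen to a daf-12 agonist screen; HEK293 cells with Gal4-LXR fusion and GAL4-driven luciferase reporter; agonist potency from rising luciferase signal of a Gal4-LXR reporter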
T6 sequence (P55055 whole entry): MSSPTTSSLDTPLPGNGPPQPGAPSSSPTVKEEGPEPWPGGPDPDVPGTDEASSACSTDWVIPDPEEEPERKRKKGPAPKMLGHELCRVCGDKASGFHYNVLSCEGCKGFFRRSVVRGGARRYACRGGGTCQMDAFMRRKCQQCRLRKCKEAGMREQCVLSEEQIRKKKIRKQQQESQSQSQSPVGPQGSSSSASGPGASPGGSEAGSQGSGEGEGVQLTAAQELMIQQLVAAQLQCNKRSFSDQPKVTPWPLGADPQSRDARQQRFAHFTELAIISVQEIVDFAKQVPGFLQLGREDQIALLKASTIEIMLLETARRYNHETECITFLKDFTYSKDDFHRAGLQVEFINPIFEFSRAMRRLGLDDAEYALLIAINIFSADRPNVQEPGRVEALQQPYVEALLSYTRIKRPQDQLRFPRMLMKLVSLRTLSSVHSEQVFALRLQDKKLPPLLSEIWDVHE

[14] = cells
[15] = molecular target: Dual specificity tyrosine-phosphorylation-regulated kinase 1A (Rattus norvegicus, UniProt Q63470); format: biochemical, Homo sapiens

CCCc1n[nH]c2c1C(c1ccc(OC)c(CSC3=NCCS3)c1)C(C#N)=C(N)O2 (stereo unspecified)
AC50 [1]: 2.99 µM (active)
IC50 [2]: 23.9 µM (active)
EC50 [3]: 4.56 µM (active)

Cc1ccc(S(=O)(=O)N2CCCCC2)cc1NC(=O)c1ccc(=O)[nH]c1
IC50 [4]: 4.88 µM (active)
IC50 [5]: 29.6 µM (inactive)
IC50 [6]: 3.08 µM (active)
IC50 [7]: 37.1 µM (inactive)

C[C@@H]1O[C@@H](O[C@H]2[C@H](O)[C@@H](O)[C@H](Oc3c(-c4ccc(O)cc4)oc4cc(O)cc(O)c4c3=O)O[C@@H]2CO)[C@H](O)[C@H](O)[C@H]1O
AC50 [8]: 6.92 µM (active)

O=C(Nc1ccc(F)cc1F)C1CC(c2ccc(F)cc2)=NO1 (stereo unspecified)
EC50 [9]: > 100 µM (inactive)

COc1ccccc1CNC(=O)CSc1nnc2ccc(-c3cccnc3)nn12
IC50 [10]: > 73.5 µM (inactive)

Nc1ccc(Cl)c(Cl)c1
AC50 [11]: 25.1 µM (inconclusive)
AC50 [12]: 56.2 µM (inconclusive)

O=[N+]([O-])c1ccccc1-c1ccc(C(=S)N2CCCC2)o1
IC50 [2]: 49.8 µM (active)
EC50 [13]: > 67.5 µM (inactive)
EC50 [14]: > 67.5 µM (inactive)

O=c1c(O[C@@H]2O[C@H](CO)[C@@H](O)[C@H](O)[C@H]2O)c(-c2ccc(O)cc2)oc2cc(O)cc(O)c12 [ASTRAGALIN]
AC50 [8]: 19 µM (active)

C[C@@H]1O[C@@H](OC[C@H]2O[C@@H](Oc3c(-c4ccc(O)c(O)c4)oc4cc(O)cc(O)c4c3=O)[C@H](O)[C@@H](O)[C@@H]2O)[C@H](O)[C@H](O)[C@H]1O
AC50 [15]: 4.08 µM (active)
IC50 [10]: > 73.5 µM (inactive)
AC50 [8]: 7.62 µM (active)

CC(C)OC(=O)Cc1ccccc1
AC50 [12]: 35.5 µM (inconclusive)

CN1CCC(Oc2ccccc2N2CC(C(=O)O)CC2=O)CC1 (stereo unspecified)
EC50 [9]: > 100 µM (inactive)
